Experiments:
[1] = biological target: hPK, M2 (PKM2) (Homo sapiens, UniProt P14618); experiment: luminescent pyruvate kinase-luciferase coupled assay; format: biochemical; conditions: for activation at 57 µM: read-out: hPK, M2 Max. Res, % activation at 57 μM of compound, luciferase coupled assay; for potency (in words): PKM2 activation, SAR statement
[2] = biological target: PKM2 (Homo sapiens, UniProt P14618); experiment: steady-state kinetics of PEP and ADP in the PK-LDH coupled assay; format: biochemical
PKM2, sequence (P14618 whole entry): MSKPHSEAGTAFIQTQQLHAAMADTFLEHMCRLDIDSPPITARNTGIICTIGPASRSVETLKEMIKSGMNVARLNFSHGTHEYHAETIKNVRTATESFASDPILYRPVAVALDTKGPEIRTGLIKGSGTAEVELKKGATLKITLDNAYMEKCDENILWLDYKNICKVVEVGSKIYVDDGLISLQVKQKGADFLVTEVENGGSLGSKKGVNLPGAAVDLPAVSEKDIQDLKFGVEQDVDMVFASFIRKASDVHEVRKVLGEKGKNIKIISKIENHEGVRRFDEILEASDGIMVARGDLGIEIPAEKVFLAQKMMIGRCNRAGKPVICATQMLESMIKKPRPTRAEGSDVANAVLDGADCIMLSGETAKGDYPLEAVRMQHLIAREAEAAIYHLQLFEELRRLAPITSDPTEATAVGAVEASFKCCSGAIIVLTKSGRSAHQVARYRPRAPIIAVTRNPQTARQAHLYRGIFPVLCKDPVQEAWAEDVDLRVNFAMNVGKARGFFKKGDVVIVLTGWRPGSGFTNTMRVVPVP

hPK, M2 (PKM2), sequence (P14618 whole entry): as above

| Structure (SMILES) | activation at 57 µM [1] | potency (in words) [1] | further results |
| --- | --- | --- | --- |
| Cn1c2ccsc2c2ncn(Cc3ccccc3F)c(=O)c21 [compound 23] | < 80% | – | – |
| CCCCCn1ncc2c3sc(C)cc3n(C)c2c1=O [compound 25] | – | marked loss of potency | – |
| Cc1cc2c(s1)c1cnn(Cc3ccccc3F)c(=O)c1n2C [compound 1] | – | – | decrease of KM for PEP ([2]; in the presence of activator versus absence (KM ~ 1.5 mM)): 10 fold; Vmax ([2]; with or without activator): 255 pmols/min |
| Cc1cc2c(s1)c1cnn(-c3ccccc3)c(=O)c1n2C [compound 24] | – | marked loss of potency | – |
| Cc1cc2[nH]c3c(=O)n(Cc4ccccc4F)ncc3c2s1 [compound 19] | 33% | – | – |

Source: publication PMC2874658 (Bioorganic & medicinal chemistry letters, 2010)
